Measured values from ChEMBL document CHEMBL3046732, “Synthesis and biological evaluation of new [1,3,4]thiadiazepino[7,6-b]quinolin-2-amines as potent anti-microbial agents” (2013).

Columns and labels:
Bacillus subtilis = assay: Antimicrobial activity against Bacillus subtilis assessed as growth inhibition by microdilution method
Aspergillus niger = assay: Antimicrobial activity against Aspergillus niger assessed as growth inhibition by microdilution method; type: functional
Curvularia australiensis = assay: Antimicrobial activity against Curvularia australiensis assessed as growth inhibition by microdilution method; type: functional
Staphylococcus aureus = assay: Antimicrobial activity against Staphylococcus aureus assessed as growth inhibition by microdilution method
Trichoderma reesei = assay: Antimicrobial activity against Trichoderma reesei assessed as growth inhibition by microdilution method; type: functional
Salmonella typhimurium = assay: Antimicrobial activity against Salmonella enterica subsp. enterica serovar Typhimurium assessed as growth inhibition by microdilution method
Escherichia coli = assay: Antimicrobial activity against Escherichia coli assessed as growth inhibition by microdilution method
Streptococcus pyogenes = assay: Antimicrobial activity against Streptococcus pyogenes assessed as growth inhibition by microdilution method
Alternaria alternata = assay: Antimicrobial activity against Alternaria alternata assessed as growth inhibition by microdilution method; type: functional
Aspergillus flavus = assay: Antimicrobial activity against Aspergillus flavus assessed as growth inhibition by microdilution method; type: functional
Klebsiella aerogenes = assay: Antimicrobial activity against Enterobacter aerogenes assessed as growth inhibition by microdilution method

SMILES	MIC (Bacillus subtilis) [µg/mL]	MIC (Aspergillus niger) [µg/mL]	MIC (Curvularia australiensis) [µg/mL]	MIC (Staphylococcus aureus) [µg/mL]	MIC (Trichoderma reesei) [µg/mL]	MIC (Salmonella typhimurium) [µg/mL]	MIC (Escherichia coli) [µg/mL]	MIC (Streptococcus pyogenes) [µg/mL]	MIC (Alternaria alternata) [µg/mL]	MIC (Aspergillus flavus) [µg/mL]	MIC (Klebsiella aerogenes) [µg/mL]
Cc1cccc2cc3c(nc12)SC(Nc1cccc(Cl)c1)=NN=C3	1000	500	1000	1000	1000	1000	1000	1000	500	1000	1000
Cc1cccc2cc3c(nc12)SC(Nc1ccc(Cl)cc1)=NN=C3	1000	1000	500	1000	1000	1000	1000	1000	500	250	1000
Cc1ccccc1NC1=NN=Cc2cc3cccc(C)c3nc2S1	1000	500	500	1000	125	1000	1000	1000	1000	125	1000
Cc1ccc(NC2=NN=Cc3cc4cccc(C)c4nc3S2)cc1	1000	1000	1000	1000	500	1000	1000	1000	1000	500	1000
Cc1cccc(C)c1NC1=NN=Cc2cc3cccc(C)c3nc2S1	1000	1000	1000	1000	250	1000	1000	1000	500	500	1000
Cc1ccc(NC2=NN=Cc3cc4cccc(C)c4nc3S2)c(C)c1	1000	1000	500	1000	250	1000	1000	1000	500	500	1000
CCc1ccc(NC2=NN=Cc3cc4cccc(C)c4nc3S2)cc1	250	500	500	500	500	1000	500	500	500	1000	1000
Cc1cccc2cc3c(nc12)SC(NCc1ccccc1)=NN=C3	> 1000	500	1000	> 1000	1000	> 1000	> 1000	> 1000	1000	1000	1000
Cc1cccc2cc3c(nc12)SC(NCCN1CCOCC1)=NN=C3	1000	500	500	1000	250	1000	1000	1000	500	250	1000
Cc1c(Cl)ccc2cc3c(nc12)SC(Nc1ccccc1)=NN=C3	125	1000	1000	> 1000	250	> 1000	60	60	250	500	60
Cc1c(Cl)ccc2cc3c(nc12)SC(Nc1ccccc1F)=NN=C3	60	500	1000	500	250	500	500	60	500	500	500
Cc1c(Cl)ccc2cc3c(nc12)SC(Nc1cccc(F)c1)=NN=C3	60	1000	1000	1000	250	1000	500	1000	1000	1000	500
